ChEMBL document CHEMBL1152015, “One-step synthesis of radioiodinated biotin derivatives” (Bioorg Med Chem Lett, 1996)

What was measured:
[1] = compound was evaluated for its affinity towards streptavidin.
[2] = Compound was evaluated for its affinity towards avidin

## O=C(O)CCCC[C@@H]1SC[C@@H]2NC(=O)N[C@@H]21
[1]
  Ka: 1e+16 M⁻¹
[2]
  Ka: 1e+16 M⁻¹
